{"source": "patent US20240252572A1", "about": "“ANTI-INFLAMMATORY AGENT FOR INTESTINAL CELLS OF DOMESTIC ANIMAL” (SDS BIOTECH K.K., priority 2021, published 2024)", "system": "BIE (bovine intestinal epithelial) cells", "test": "Inflammatory cytokine gene expression (RT-PCR) in LPS-stimulated bovine intestinal epithelial cells", "format": "cell-based", "conditions": "CNSL 30 ppm, aspirin 10 ppm, single agents", "method": "To evaluate the effect of endotoxin stimulated inflammatory reaction in the intestine, CNSL, vitamin K1 (FUJIFILM Wako Pure Chemical Corporation), or a combination thereof was added to bovine intestinal epithelial cells, the cells were cultured, and cytokine gene expression analysis was performed. Aspirin was used as a positive control. • 1. Seeding of BIE Cells • BIE (bovine intestinal epithelial) cells were seeded in a 12-well plate (manufactured by COSTAR) at 3.0×10^4 cells/well, and cultured in a CO2 incubator. • 2. […] A culture supernatant was collected, the wells were then washed with the sterilized PBS, and adherent cells were solubilized with TRIZOL, and harvested (at 9:00 p.m. on Day 5 and at 9:00 a.m. on Day 6) (12 hours or 24 hours) The sample in which TRIZOL (manufactured by INVITROGEN) is dissolved is partially purified by phenol-chloroform extraction and ethanol precipitation, and then dissolved in 10 μL of RNase-free water, and the O.D. (absorbance) of the resultant is measured with NanoDrop (manufactured by Thermo Fisher Scientific K.K.). […]", "data": [{"smiles": "CC(=O)Oc1ccccc1C(=O)O", "note": "[aspirin, acetylsalicylic acid]", "values": [{"measurement": "action of the inflammation mediators, stimulated by endotoxin (LPS)", "value": "suppress"}]}]}
